Experimental data from patent publication US10894797B2, “Fused tricyclic ring derivatives as SRC homology-2 phosphatase inhibitors” (Nikang Therapuetics, Inc., priority 2018, dated 2021).

target: SHP2 (Homo sapiens (Human), UniProt Q06124); assay: SHP2 allosteric inhibition assay (DiFMUP substrate, bisphos-IRS1 peptide activation); type: biochemical; settings: 0.33 nM SHP2, 0.5 μM bisphos-IRS1 peptide, 100 uM DiFMUP, room temperature
Method: At the basal state, SHP2 is auto-inhibited and access of substrates to the catalytic site is blocked by the […] interactions between the SH2 domains and the PTP domain. When bis-tyrosyl-phosphorylated peptides bind to SH2 domain of SHP2, the PTP domain becomes available for substrate recognition and reaction catalysis and SHP2 is allosterically activated. SHP2 catalytic activity can be measured using a fluorogenic artificial substrate DiFMUP.
The phosphatase reactions were carried out at room temperature in 384-well black polystyrene plates (Greiner Bio-One, Cat #784076) using assay buffers containing 60 mM HEPES, pH 7.2, 75 mM NaCl, 75 mM KCl, 1 mM EDTA, 0.05% P-20, and 5 mM DTT.
0.33 nM of SHP2 was co-incubated with of 0.5 μM of bisphos-IRS 1 peptide (sequence: H2N-LN(pY)IDLDLV(dPEG8)LST(pY)ASINFQK-amide) and various concentrations of compounds for 30-60 min at room temperature. Then the reaction was initiated by addition of the surrogate substrate DiFMUP (Invitrogen, Cat #D6567, 100 uM final).
The real-time conversion of DiFMUP to DiFMU (6,8-difluoro-7-hydroxyl-4-methyl-coumarin) was measured every 5 min for 30 min using a microplate reader (CLARIOstar, BMG Labtech) with excitation and emission wavelengths of 340 nm and 450 nm, respectively. Initial reaction rates were determined by linear fitting of the data and the inhibitor dose response curves were analyzed using normalized IC50 regression curve fitting with control-based normalization.

SHP2, sequence (Q06124 whole entry, the tested form may be a part): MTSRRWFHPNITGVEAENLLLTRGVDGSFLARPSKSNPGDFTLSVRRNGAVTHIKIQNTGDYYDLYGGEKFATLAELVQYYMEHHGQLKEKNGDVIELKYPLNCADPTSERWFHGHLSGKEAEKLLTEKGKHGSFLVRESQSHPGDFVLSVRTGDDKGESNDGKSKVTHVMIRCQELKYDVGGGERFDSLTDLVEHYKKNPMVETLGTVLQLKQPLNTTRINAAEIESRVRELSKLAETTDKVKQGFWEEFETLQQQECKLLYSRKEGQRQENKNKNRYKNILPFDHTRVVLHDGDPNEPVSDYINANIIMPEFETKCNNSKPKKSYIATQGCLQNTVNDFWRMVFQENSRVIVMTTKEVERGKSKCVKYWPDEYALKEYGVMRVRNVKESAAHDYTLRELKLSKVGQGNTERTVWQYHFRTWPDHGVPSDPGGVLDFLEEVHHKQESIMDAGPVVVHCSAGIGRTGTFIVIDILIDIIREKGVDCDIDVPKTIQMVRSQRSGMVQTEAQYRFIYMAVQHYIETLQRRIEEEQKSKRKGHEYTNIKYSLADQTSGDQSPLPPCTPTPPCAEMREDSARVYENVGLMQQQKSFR

`COCOC[C@H]1C[C@H]2COc3c(Sc4cnc(N5CCC6(CC5)CO[C@@H](C)[C@H]6N)c(CO)n4)ccnc3N2C1` [Compound 31, (3-((3S,4S)-4-amino-3-methyl-2-oxa-8-azaspiro[4.5]decan-8-yl)-6-(((6aS,8S)-8-((methoxymethoxy)methyl)-6a,7,8,9-tetrahydro-6H-pyrido[3,2-b]pyrrolo[1,2-d][1,4]oxazin-4-yl)thio)pyrazin-2-yl)methanol] and `CO[C@@H]1C[C@H]2COc3c(Sc4cnc(N5CCC6(CC5)CO[C@@H](C)[C@H]6N)c(CO)n4)ccnc3N2C1` [Compound 6, (3-((3S,4S)-4-amino-3-methyl-2-oxa-8-azaspiro[4.5]decan-8-yl)-6-(((6aS,8R)-8-methoxy-6a,7,8,9-tetrahydro-6H-pyrido[3,2-b]pyrrolo[1,2-d][1,4]oxazin-4-yl)thio)pyrazin-2-yl)methanol] are within 1.5-fold of each other in IC50: 4.2 nM for the first, 6 nM for the second.

`C[C@@H]1OCC2(CCN(c3ncc(Sc4ccnc5c4OC[C@@H]4C[C@H](OC6COC6)CN54)nc3CO)CC2)[C@@H]1N` [Compound 13, (3-((3S,4S)-4-amino-3-methyl-2-oxa-8-azaspiro[4.5]decan-8-yl)-6-(((6aS,8S)-8-(oxetan-3-yloxy)-6a,7,8,9-tetrahydro-6H-pyrido[3,2-b]pyrrolo[1,2-d][1,4]oxazin-4-yl)thio)pyrazin-2-yl)methanol] and `C[C@@H]1OCC2(CCN(c3ncc(Sc4ccnc5c4OC[C@@H]4C[C@@H](OC(N)=O)CN54)nc3CO)CC2)[C@@H]1N` [Compound 23, (6aS,8R)-4-((5-((3 S,4S)-4-amino-3-methyl-2-oxa-8-azaspiro[4.5]decan-8-yl)-6-(hydroxymethyl)pyrazin-2-yl)thio)-6a,7,8,9-tetrahydro-6H-pyrido[3,2-b]pyrrolo[1,2-d][1,4]oxazin-8-yl Carbamate] are the same in IC50: 8 nM for the first, 8 nM for the second.

`COCOC[C@H]1C[C@H]2COc3c(Sc4cnc(N5CCC6(CC5)CO[C@@H](C)[C@H]6N)cn4)ccnc3N2C1` [Compound 42, (3S,4S)-8-(5-(((6aS,8S)-8-((methoxymethoxy)methyl)-6a,7,8,9-tetrahydro-6H-pyrido[3,2-b]pyrrolo[1,2-d][1,4]oxazin-4-yl)thio)pyrazin-2-yl)-3-methyl-2-oxa-8-azaspiro[4.5]decan-4-amine] and `COC[C@H]1C[C@H]2COc3c(Sc4cnc(N5CCC6(CC5)CO[C@@H](C)[C@H]6N)cn4)ccnc3N2C1` [Compound 43, (3S,4S)-8-(5-(((6aS,8S)-8-(methoxymethyl)-6a,7,8,9-tetrahydro-6H-pyrido[3,2-b]pyrrolo[1,2-d][1,4]oxazin-4-yl)thio)pyrazin-2-yl)-3-methyl-2-oxa-8-azaspiro[4.5]decan-4-amine] are within 1.5-fold of each other in IC50: 5.9 nM for the first, 4.5 nM for the second.

Compared with `COCCO[C@H]1C[C@H]2COc3c(Sc4cnc(N5CCC6(CC5)CO[C@@H](C)[C@H]6N)c(CO)n4)ccnc3N2C1` [Compound 15, (3-((3S,4S)-4-amino-3-methyl-2-oxa-8-azaspiro[4.5]decan-8-yl)-6-(((6aS,8S)-8-(2-methoxyethoxy)-6a,7,8,9-tetrahydro-6H-pyrido[3,2-b]pyrrolo[1,2-d][1,4]oxazin-4-yl)thio)pyrazin-2-yl)methanol], `C[C@@H]1OCC2(CCN(c3ncc(Sc4ccnc5c4OC[C@@H]4C[C@@H](F)CN54)nc3CO)CC2)[C@@H]1N` [Compound 4, (3-((3S,4S)-4-amino-3-methyl-2-oxa-8-azaspiro[4.5]decan-8-yl)-6-(((6aS,8R)-8-fluoro-6a,7,8,9-tetrahydro-6H-pyrido[3,2-b]pyrrolo[1,2-d][1,4]oxazin-4-yl)thio)pyrazin-2-yl)methanol] is 2-fold lower in IC50: 10 nM for the first, 5 nM for the second.

`COCOC[C@H]1C[C@H]2COc3c(Sc4cnc(N5CCC6(CC5)Cc5ncccc5[C@H]6N)c(CO)n4)ccnc3N2C1` [Compound 48, (3-((S)-5-amino-5,7-dihydrospiro[cyclopenta[b]pyridine-6,4′-piperidin]-1′-yl)-6-(((6aS,8S)-8-((methoxymethoxy)methyl)-6a,7,8,9-tetrahydro-6H-pyrido[3,2-b]pyrrolo-[1,2-d][1,4]oxazin-4-yl)thio)pyrazin-2-yl)methanol] gave an IC50 of 3.3 nM.

For `C[C@@H]1OCC2(CCN(c3ncc(Sc4ccnc5c4OC[C@H]4COCCN54)nc3CO)CC2)[C@@H]1N` [Compound 26, (3-((3S,4S)-4-amino-3-methyl-2-oxa-8-azaspiro[4.5]decan-8-yl)-6-(((R)-6a,7,9,10-tetrahydro-6H-[1,4]oxazino[4,3-d]pyrido[3,2-b][1,4]oxazin-4-yl)thio)pyrazin-2-yl)methanol], the “Shp2 IC50(nM)” value was “one of 26 and 27 is 10 and the other is 8”.
In the case of `COC[C@H]1C[C@H]2COc3c(Sc4cnc(N5CCC6(CC5)Cc5ncccc5[C@H]6N)c(CO)n4)ccnc3N2C1` [Compound 36, (3-((S)-5-amino-5,7-dihydrospiro[cyclopenta[b]pyridine-6,4′-piperidin]-1′-yl)-6-(((6aS,8S)-8-(methoxymethyl)-6a,7,8,9-tetrahydro-6H-pyrido[3,2-b]pyrrolo[1,2-d][1,4]oxazin-4-yl)thio)pyrazin-2-yl)methanol], the “Shp2 IC50(nM)” value is reported as “One of 36 and 37 is 2.7 and the other is 4.2”.
